Values after ≈ are worked out from the molar mass of the structure shown. Where two headings read alike, the source gives them in different places.

The values that follow come from patent EP4588921A1, “FREE BASE CRYSTAL FORM OF POLYCYCLIC COMPOUND OF NITROGEN-CONTAINING HETEROCYCLE, AND PREPARATION METHOD THEREFOR” (Jiangsu Hansoh Pharmaceutical Group Co., Ltd., priority 2022, dated 2024).

Data set [1] has as its target T1, human OX2R (Homo sapiens, UniProt O43614).
T1 construct: expressed in transfected cells; host or cells: CHO-K1
T1 sequence (O43614 1-444): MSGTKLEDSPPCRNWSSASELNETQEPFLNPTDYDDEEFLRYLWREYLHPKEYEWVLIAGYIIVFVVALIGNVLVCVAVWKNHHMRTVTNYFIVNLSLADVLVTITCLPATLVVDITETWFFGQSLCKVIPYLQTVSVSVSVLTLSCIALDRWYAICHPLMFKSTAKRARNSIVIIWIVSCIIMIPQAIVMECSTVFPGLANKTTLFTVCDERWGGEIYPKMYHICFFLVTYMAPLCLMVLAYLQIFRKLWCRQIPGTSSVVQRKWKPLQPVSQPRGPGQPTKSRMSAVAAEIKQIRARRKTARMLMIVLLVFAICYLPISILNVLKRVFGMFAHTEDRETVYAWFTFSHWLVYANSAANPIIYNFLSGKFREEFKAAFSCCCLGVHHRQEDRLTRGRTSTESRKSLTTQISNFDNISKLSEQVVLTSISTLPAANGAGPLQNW
Kind of data set: Calcium current (FLIPR) in cells stably expressing OX2 receptor. In kind it is cell-based. The note with it: for IC50: CHO-K1/human OX2R cells, agonist OX-B at EC80, FLIPR Tetra; for Select fold: OX1R IC50 over OX2R IC50. The protocol:
(§1) Determination of the effect of the compounds of the present invention on calcium current in cells stably expressing OX1 and OX2 receptors 1. Experimental objective: The inhibitory effect of the compounds on calcium current activity in CHO-K1/human OX1R and CHO-K1/human OX2R cells was detected. 2. […] 3. […] The IC50 of the positive compounds and test compounds was determined. 4. Experimental data processing method: FLIPR Tetra was used to read and collect the fluorescence signal value (RFU). […] 5.

In data set [2] the target is T2, human OX1R (Homo sapiens, UniProt O43613).
T2 construct: expressed in transfected cells; host or cells: CHO-K1
T2 sequence (O43613 1-425): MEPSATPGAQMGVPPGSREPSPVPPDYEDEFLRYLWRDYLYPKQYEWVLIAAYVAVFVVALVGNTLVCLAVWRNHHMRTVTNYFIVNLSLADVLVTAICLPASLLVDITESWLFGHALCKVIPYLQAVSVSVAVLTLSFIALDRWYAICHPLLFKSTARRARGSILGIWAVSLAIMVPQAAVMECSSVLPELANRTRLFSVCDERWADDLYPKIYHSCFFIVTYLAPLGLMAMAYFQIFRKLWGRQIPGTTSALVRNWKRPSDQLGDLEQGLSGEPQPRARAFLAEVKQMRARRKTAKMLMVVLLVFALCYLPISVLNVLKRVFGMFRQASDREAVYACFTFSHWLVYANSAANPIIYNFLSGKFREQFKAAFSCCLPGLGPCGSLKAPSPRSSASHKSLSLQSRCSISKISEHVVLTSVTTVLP
Kind of data set: Calcium current (FLIPR) in cells stably expressing OX1 receptor. In kind it is cell-based. Conditions: CHO-K1/human OX1R cells; agonist OX-A at EC80; FLIPR Tetra. On the procedure:
as §1

Data set [3] in a line: in vivo. The note with it: male, SD, rat, po, 5 mg/kg. The protocol:
SD rats were used as test animals to study the pharmacokinetic behaviour of the compounds of the present invention in rat (plasma) after oral administration at a dose of 5 mg/kg.
The example compound of the present invention, made in house.
Oral administration drug preparation: 20%HP-β-CD in Water
HP-β-CD powder (20 g) was weighed and dissolved in purified water (100 mL), and the mixture was homogeneously mixed by vortex and subjected to ultrasound treatment to afford a clear solution.
The example compound was weighed and added to a 20 mL glass bottle, the solution was added and the mixture was subjected to ultrasound treatment for 10 minutes to afford a colourless clear solution with a concentration of 0.5 mg/mL.
The brain tissues were rinsed with pre-cooled PBS, wiped dry, weighed, and stored at -80°C.
• 1) Acetonitrile (160 µL) was added to plasma sample (40 µL) for precipitation, and the mixture was mixed and centrifuged at 3500 × g for 5 to 20 minutes. • 2) The treated supernatant solution was taken and subjected to LC/MS/MS to analyse the concentrations of the test compounds. LC/MS/MS analysis instrument: AB Sciex API 4000 Qtrap.
• Liquid phase conditions: Shimadzu LC-20AD pump • Chromatographic column: Agilent ZORBAX XDB-C18 (50×2.1 mm, 3.5 µm) mobile phase: liquid A: 0.1% aqueous formic acid solution, liquid B: acetonitrile • Flow rate: 0.4 mL/min • Elution time: 0-4.0 min, the eluent is as follows:
The main pharmacokinetic parameters were calculated using WinNonlin 6.1.

Data set [4] in a line: Solid stability experiment (related substances by HPLC). In kind it is physicochemical. The protocol:
The compound physical and chemical stability at high temperature of 60°C, high humidity of 92.5% RH and both high temperature of 50°C and high humidity of 75% RH of the free base crystal form I and the free base crystal form II were investigated to provide a basis for the storage of the compounds.
About 2 mg of the free base crystal form I and the free base crystal form II were taken respectively, and changes of related substances in the crystal forms at high temperature of 60°C, high humidity of 92.5% RH, and both high temperature of 50°C and high humidity of 75%RH for 7 days and 14 days were investigated. The changes of related substances were calculated by HPLC and the chromatographic peak area normalization method.

Data set [5] in a line: Hygroscopicity experiment. In kind it is physicochemical. The note with it: at 80%RH. On the procedure: The hygroscopicity of the crystal form I and the crystal form II of compound 9 were investigated under different relative humidity to provide a basis for the storage of the compounds.
The crystal form I and the crystal form II of compound 9 were placed in saturated water vapor at different relative humidities to allow the compound to reach a dynamic equilibrium with the water vapor, and the percentage of weight gain after moisture absorption of the compound after equilibrium was calculated.

The nature of data set [6]: PK studies in animals of the free base crystal forms. In kind it is in vivo. The note with it: Sprague-Dawley (SD), rat, 30 mg/kg, 30MPK, 0.5%HPMC suspension, SD rats, plasma. The protocol: The pharmacokinetic of the free base crystal form after a single intravenous administration was studied, and the bioavailability of the free base crystal form I and the free base crystal form II after oral administration were calculated.
The free base crystal form I was suspended with 0.5% CMCC-Na aqueous solution, and the free base crystal form […] aqueous solution. After uniformity, the suspensions were administered intragastrically to rats in triplicate at a dosage of 5 mg/kg (30 mg/kg for suspension) for the free base crystal form I and a dosage of 30 mg/kg (suspension) for the free base crystal form II. The free base crystal form I was dissolved with 20% HP-β-CD aqueous solution to obtain a clear solution, and the clear solution was filtered through a filter membrane. The filtered solution was administered via injection to rats in triplicate.

Data set [7] in a line: Solubility experiments in different media (thermodynamic solubility). In kind it is physicochemical. Conditions: thermodynamic from solid. An excerpt:
The solubility of the free base crystal form I and the free base crystal form II in media such as pH 1.0-8.0 USP buffer, artificial simulated gastric fluid (FaSSGF), fasted-state artificial simulated intestinal fluid (FaSSIF), fed-state artificial simulated intestinal fluid (FeSSIF) and pure water was compared to provide a basis for the evaluation of drugability.

[8] abbreviates: Room temperature, 92.5%RH, 7 days.
[9] abbreviates: Room temperature, 92.5%RH, 14 days.

The term IC50 denotes the concentration that inhibits the measured activity by half. One may read the AUC(0-inf) as total exposure, with the tail of the curve extrapolated. The low end stands for less exposure, the high end for more exposure. One may read the Cmax as the highest concentration seen after dosing. The Tmax is the time at which the peak concentration occurs. In the case of `Cc1nc(N2C[C@H]3CN(C(=O)c4c(F)cccc4-c4ccccn4)C[C@H]3C2)nc(C(C)(C)O)c1F` [Compound 12, ((3aR,6aS)-5-(5-fluoro-4-(2-hydroxypropan-2-yl)-6-methylpyrimidin-2-yl)hexahydropyrrolo[3,4-c]pyrrol-2(1H)-yl)(2-fluoro-6-(pyridin-2-yl)phenyl)methanone], in data set [1], the IC50 was determined as 0.00726 µM and the Select fold is on record as 36. Besides, in data set [2], the half-inhibitory concentration (IC50) stood at 0.263 µM. Moreover, in data set [3], the AUC(0-inf) worked out at 335 ng·h/mL, the Cmax came out at 420 ng/mL and the Tmax was 0.5 h.
A word on the AUC(0-t): it is exposure summed from dosing to a finite time, without extrapolation to infinity. Read a low AUC(0-t) as low exposure. A word on the bioavailability: it is the share of a dose that reaches the circulation, judged against a reference dose that is usually intravenous. A lower bioavailability goes with little systemic uptake. As a reminder, the half-life is the time in which the quantity being followed falls by half. Higher therefore signals slow decline. As a reminder, the solubility is the dissolved amount per volume that the medium holds. Turning to `CC(C)(O)c1nc(N2C[C@H]3CN(C(=O)c4c(F)cccc4-c4ncccn4)C[C@H]3C2)ncc1F` [free base crystal form II, ((3aR,6aS)-5-(5-fluoro-4-(2-hydroxyprop-2-yl)pyrimidin-2-yl)hexahydropyrrolo [3,4-c]pyrrol-2(1H)-yl)(2-fluoro-6-(pyrimidin-2-yl)phenyl)methanone], the “% Increase in total impurity” value was <0.10% in data set [4] (50°C, 75%RH, 7 days); <0.10% in data set [4] (50°C, 75%RH, 14 days); <0.10% in data set [4] (60°C, 7 days); <0.10% in data set [4] (60°C, 14 days); <0.10% in data set [4] (setting [8]); <0.11% in data set [4] (setting [9]). Further, the “% Maximum increase in single impurity” value in data set [4] (50°C, 75%RH, 7 days) is <0.10%; in data set [4] (50°C, 75%RH, 14 days) it was <0.10%; in data set [4] (60°C, 7 days), <0.10%; in data set [4] (60°C, 14 days) it was <0.10%; in data set [4] (setting [8]) it was <0.10%; in data set [4] (setting [9]) it was <0.10%. The “weight gain after moisture absorption” value in data set [5] is “about 0.2053%”. Moreover, in data set [6] (PO, read-out: tmax), the Tmax was found to be 2 h. The total exposure AUC(0-inf) in data set [6] (po) was 13600 ng·h/mL. In data set [6] (po), this compound showed an AUC(0-t) of 11800 ng·h/mL. In data set [6] (po), this compound showed a Cmax of 2520 ng/mL. This compound also registered a bioavailability in data set [6] (po) of 39.6%. In data set [6] (po), this compound gave a half-life of 2.4 h. Besides, in data set [6] (po, PO, read-out: MRT 0-∞), the MRT inf is 4.3 h. Besides, the solubility at 2 h was 51 µg/mL (≈ 109 µM) in data set [7] (FaSSCoF, 37 °C, fassgf or other biorelevant, FaSSCoF, read-out: Solubility of free base crystal form II); 131 µg/mL (≈ 281 µM) in data set [7] (FaSSGF (artificial simulated gastric fluid), 37 °C, fassgf or other biorelevant, FaSSGF, read-out: Solubility of free base crystal form II); 60 µg/mL (≈ 129 µM) in data set [7] (FaSSIF, 37 °C, fassif, FaSSIF, read-out: Solubility of free base crystal form II); 63 µg/mL (≈ 135 µM) in data set [7] (FeSSCoF, 37 °C, fassgf or other biorelevant, FeSSCoF, read-out: Solubility of free base crystal form II); 100 µg/mL (≈ 214 µM) in data set [7] (FeSSIF, 37 °C, fessif, FeSSIF, read-out: Solubility of free base crystal form II); 599 µg/mL (≈ 1280 µM) in data set [7] (USP buffer pH 1.0, 37 °C, pH 1, simulated gastric fluid, pH 1.0, read-out: Solubility of free base crystal form II). In addition, the solubility at 2 h in data set [7] (USP buffer pH 2.0, 37 °C, pH 2, simulated gastric fluid, pH 2.0, read-out: Solubility of free base crystal form II) is 89 µg/mL (≈ 191 µM); in data set [7] (USP buffer pH 3.0, 37 °C, pH 3, aqueous buffer, pH 3.0, read-out: Solubility of free base crystal form II) it was 55 µg/mL (≈ 118 µM); in data set [7] (USP buffer pH 4.5, 37 °C, pH 4.5, aqueous buffer, pH 4.5, read-out: Solubility of free base crystal form II), 53 µg/mL (≈ 114 µM); in data set [7] (USP buffer pH 6.8, 37 °C, pH 6.8, aqueous buffer, pH 6.8, read-out: Solubility of free base crystal form II), 49 µg/mL (≈ 105 µM); in data set [7] (USP buffer, 37 °C, pH 4, aqueous buffer, pH 4.0, read-out: Solubility of free base crystal form II), 51 µg/mL (≈ 109 µM); in data set [7] (USP buffer, 37 °C, pH 5, aqueous buffer, pH 5.0, read-out: Solubility of free base crystal form II), 50 µg/mL (≈ 107 µM). Also, the solubility at 2 h in data set [7] (USP buffer, 37 °C, pH 6, aqueous buffer, pH 6.0, read-out: Solubility of free base crystal form II) is 50 µg/mL (≈ 107 µM); in data set [7] (USP buffer, 37 °C, pH 7, aqueous buffer, pH 7.0, read-out: Solubility of free base crystal form II) it was 47 µg/mL (≈ 101 µM); in data set [7] (USP buffer, 37 °C, pH 8, aqueous buffer, pH 8.0, read-out: Solubility of free base crystal form II) it was 47 µg/mL (≈ 101 µM); in data set [7] (water, 37 °C, water, H2O, read-out: Solubility of free base crystal form II), 55 µg/mL (≈ 118 µM).
Consider `Cc1nc(N2C[C@H]3CN(C(=O)c4ccc(F)cc4-n4nccn4)C[C@H]3C2)nc(C(C)(C)O)c1F` [Compound 10, (4-fluoro-2-(2H-1,2,3-triazol-2-yl)phenyl)((cis)-5-(5-fluoro-4-(2-hydroxypropan-2-yl)-6-methylpyrimidin-2-yl)hexahydropyrrolo [3,4-c]pyrrol-2(1H)-yl)methanone], for which, in data set [1], the 50% inhibitory concentration (IC50) is 0.0252 µM and the Select fold is reported as 48. For the same compound, the IC50 in data set [2] was 1.2 µM.
